Measurements: patent publication US12479804B2, “Herbicidal compounds” (SYNGENTA CROP PROTECTION AG, priority 2019, dated 2025)

Legend:
Assay in all cases: Glasshouse herbicidal test, pre- and post-emergence, percentage damage to the plant
Type in all cases: in vivo
Avena fatua (AVEFA) = settings: 250 g/h, evaluated after 13 days; for AVEFA POST percentage damage caused to the plant (five-point scale): post-emergence; for AVEFA PRE percentage damage caused to the plant (five-point scale): pre-emergence
Method: (§1) Seeds of a variety of test species are sown in standard soil in pots (Lolium perenne (LOLPE), Setaria faberi (SETFA), Alopecurus myosuroides (ALOMY), Echinochloa crus-galli (ECHCG), Avena fatua (AVEFA)). After cultivation for one day (pre-emergence) or after 8 days cultivation (post-emergence) under controlled conditions in a glasshouse (at 24/16° C., day/night; 14 hours light; 65% humidity), the plants are sprayed with an aqueous spray solution derived from the formulation of the technical active ingredient in acetone/water (50:50) solution containing 0.5% Tween 20 (polyoxyethelyene sorbitan monolaurate, CAS RN 9005-64-5). Compounds are applied at 250 g/h. The test plants are then grown in a glasshouse under controlled conditions in a glasshouse (at 24/16° C., day/night; 14 hours light; 65% humidity) and watered twice daily. After 13 days for pre and post-emergence, the test is evaluated for the percentage damage caused to the plant. The biological activities are shown in the following table on a five-point scale (5=80-100%; 4=60-79%; 3=40-59%; 2=20-39%; 1=0-19%).

[1] = tested on: Alopecurus myosuroides (ALOMY); settings: 250 g/h, evaluated after 13 days; for ALOMY POST percentage damage caused to the plant (five-point scale): post-emergence; for ALOMY PRE percentage damage caused to the plant (five-point scale): pre-emergence
Method: as §1

Setaria faberi (SETFA) = settings: 250 g/h, evaluated after 13 days; for SETFA POST percentage damage caused to the plant (five-point scale): post-emergence; for SETFA PRE percentage damage caused to the plant (five-point scale): pre-emergence
Method: as §1

[2] = tested on: Echinochloa crus-galli (ECHCG); settings: 250 g/h, evaluated after 13 days; for ECHCG POST percentage damage caused to the plant (five-point scale): post-emergence; for ECHCG PRE percentage damage caused to the plant (five-point scale): pre-emergence
Method: as §1

Lolium perenne (LOLPE) = settings: 250 g/h, evaluated after 13 days; for LOLPE POST percentage damage caused to the plant (five-point scale): post-emergence; for LOLPE PRE percentage damage caused to the plant (five-point scale): pre-emergence
Method: as §1

CC#Cc1cc(C)c(C2C(=O)CC3(CCN4C(=O)CCC4C3)CC2=O)c(C)c1 (stereo not drawn) [Compound A14]
5 (5=80-100%): AVEFA POST percentage damage caused to the plant (five-point scale) (Avena fatua (AVEFA)) | AVEFA PRE percentage damage caused to the plant (five-point scale) (Avena fatua (AVEFA)) | ALOMY POST percentage damage caused to the plant (five-point scale) [1] | ALOMY PRE percentage damage caused to the plant (five-point scale) [1] | SETFA POST percentage damage caused to the plant (five-point scale) (Setaria faberi (SETFA)) | SETFA PRE percentage damage caused to the plant (five-point scale) (Setaria faberi (SETFA)) | ECHCG POST percentage damage caused to the plant (five-point scale) [2] | ECHCG PRE percentage damage caused to the plant (five-point scale) [2] | LOLPE POST percentage damage caused to the plant (five-point scale) (Lolium perenne (LOLPE)) | LOLPE PRE percentage damage caused to the plant (five-point scale) (Lolium perenne (LOLPE))

CC#Cc1cc(C)c(C2C(=O)CC3(C=CN(C(=O)COC)CC3)CC2=O)c(C)c1 (stereo not drawn) [Compound A15]
5 (5=80-100%): AVEFA POST percentage damage caused to the plant (five-point scale) (Avena fatua (AVEFA)) | AVEFA PRE percentage damage caused to the plant (five-point scale) (Avena fatua (AVEFA)) | ALOMY POST percentage damage caused to the plant (five-point scale) [1] | ALOMY PRE percentage damage caused to the plant (five-point scale) [1] | SETFA POST percentage damage caused to the plant (five-point scale) (Setaria faberi (SETFA)) | SETFA PRE percentage damage caused to the plant (five-point scale) (Setaria faberi (SETFA)) | ECHCG POST percentage damage caused to the plant (five-point scale) [2] | ECHCG PRE percentage damage caused to the plant (five-point scale) [2] | LOLPE POST percentage damage caused to the plant (five-point scale) (Lolium perenne (LOLPE)) | LOLPE PRE percentage damage caused to the plant (five-point scale) (Lolium perenne (LOLPE))

CC#Cc1cc(C)c(C2C(=O)CC3(C=CN(C(=O)c4ccccn4)CC3)CC2=O)c(C)c1 (stereo not drawn) [Compound A48]
5 (5=80-100%): AVEFA POST percentage damage caused to the plant (five-point scale) (Avena fatua (AVEFA)) | AVEFA PRE percentage damage caused to the plant (five-point scale) (Avena fatua (AVEFA)) | ALOMY POST percentage damage caused to the plant (five-point scale) [1] | ALOMY PRE percentage damage caused to the plant (five-point scale) [1] | SETFA POST percentage damage caused to the plant (five-point scale) (Setaria faberi (SETFA)) | SETFA PRE percentage damage caused to the plant (five-point scale) (Setaria faberi (SETFA)) | ECHCG POST percentage damage caused to the plant (five-point scale) [2] | ECHCG PRE percentage damage caused to the plant (five-point scale) [2] | LOLPE POST percentage damage caused to the plant (five-point scale) (Lolium perenne (LOLPE)) | LOLPE PRE percentage damage caused to the plant (five-point scale) (Lolium perenne (LOLPE))

CC#Cc1cc(C)c(C2C(=O)CC3(C=CN(C(=O)C4CC4)CC3)CC2=O)c(C)c1 (stereo not drawn) [Compound A49]
5 (5=80-100%): AVEFA POST percentage damage caused to the plant (five-point scale) (Avena fatua (AVEFA)) | AVEFA PRE percentage damage caused to the plant (five-point scale) (Avena fatua (AVEFA)) | ALOMY POST percentage damage caused to the plant (five-point scale) [1] | ALOMY PRE percentage damage caused to the plant (five-point scale) [1] | SETFA POST percentage damage caused to the plant (five-point scale) (Setaria faberi (SETFA)) | SETFA PRE percentage damage caused to the plant (five-point scale) (Setaria faberi (SETFA)) | ECHCG POST percentage damage caused to the plant (five-point scale) [2] | ECHCG PRE percentage damage caused to the plant (five-point scale) [2] | LOLPE POST percentage damage caused to the plant (five-point scale) (Lolium perenne (LOLPE)) | LOLPE PRE percentage damage caused to the plant (five-point scale) (Lolium perenne (LOLPE))

CC#Cc1cc(C)c(C2C(=O)CC3(C=CN(C(=O)COC(F)F)CC3)CC2=O)c(C)c1 (stereo not drawn) [Compound A50]
5 (5=80-100%): AVEFA POST percentage damage caused to the plant (five-point scale) (Avena fatua (AVEFA)) | AVEFA PRE percentage damage caused to the plant (five-point scale) (Avena fatua (AVEFA)) | ALOMY POST percentage damage caused to the plant (five-point scale) [1] | ALOMY PRE percentage damage caused to the plant (five-point scale) [1] | SETFA POST percentage damage caused to the plant (five-point scale) (Setaria faberi (SETFA)) | SETFA PRE percentage damage caused to the plant (five-point scale) (Setaria faberi (SETFA)) | ECHCG POST percentage damage caused to the plant (five-point scale) [2] | ECHCG PRE percentage damage caused to the plant (five-point scale) [2] | LOLPE POST percentage damage caused to the plant (five-point scale) (Lolium perenne (LOLPE)) | LOLPE PRE percentage damage caused to the plant (five-point scale) (Lolium perenne (LOLPE))

CC#Cc1cc(C)c(C2C(=O)CC3(C=CN(C(=O)CC#N)CC3)CC2=O)c(C)c1 (stereo not drawn) [Compound A51]
5 (5=80-100%): AVEFA POST percentage damage caused to the plant (five-point scale) (Avena fatua (AVEFA)) | AVEFA PRE percentage damage caused to the plant (five-point scale) (Avena fatua (AVEFA)) | ALOMY POST percentage damage caused to the plant (five-point scale) [1] | ALOMY PRE percentage damage caused to the plant (five-point scale) [1] | SETFA POST percentage damage caused to the plant (five-point scale) (Setaria faberi (SETFA)) | SETFA PRE percentage damage caused to the plant (five-point scale) (Setaria faberi (SETFA)) | ECHCG POST percentage damage caused to the plant (five-point scale) [2] | ECHCG PRE percentage damage caused to the plant (five-point scale) [2] | LOLPE POST percentage damage caused to the plant (five-point scale) (Lolium perenne (LOLPE)) | LOLPE PRE percentage damage caused to the plant (five-point scale) (Lolium perenne (LOLPE))
